Results published in patent US20070111258A1, “Compositions and methods for modulating the acute phase response” (priority 2005, published 2007).

B1: IL1β: pro-inflammatory cytokine; recombinant murine IL1β in vivo (protein, UniProt P10749 118-269, looked up)
Interleukin-1 beta: VPIRQLHYRLRDEQQKSLVLSDPYELKALHLNGQNINQQVIFSMSFVQGEPSNDKIPVALGLKGKNLYLSCVMKDGTPTLQLESVDPKQYPKKKMEKRFVFNKIEVKSKVEFESAEFPNWYISTSQAEHKPVFLGNNSGQDIIDFTMESVSS
B2: interleukin-6 (protein, UniProt P08505 25-211, looked up)
Interleukin-6: FPTSQVRRGDFTEDTTPNRPVYTTSQVGGLITHVLWEIVEMRKELCNGNSDCMNNDDALAENNLKLPEIQRNDGCYQTGYNQEICLLKISSGLLEYHSYLEYMKNNLKDNKKDKARVLQRDTETLIHIFNQEVKDLHKIVLPTPISNALLTDKLESQKEWLRTKTIQFILKSLEEFLKVTLRSTRQT
notes: pro-inflammatory cytokine; recombinant murine IL6 in vivo

Columns and labels:
CREBH mRNA = CREBH mRNA induction in H2.35 cells (Northern blot, quantitative real-time RT-PCR); type: cell-based; settings: murine H2.35 hepatoma cells; IL6 40 ng/ml, TNFα 20 ng/ml, IL1β 40 ng/ml, DTT 5 mM, Tg 0.5 μM, Tm 5 μg/ml, BFA 0.5 μg/ml; 4, 8, 12 hours
Description: FIG. 1 depicts the induction of expression of CREBH during fetal liver development and by proinflammatory cytokines. (A) Structural comparison of CREBH and ATF6. The domains are indicated by residue numbers of amino acids. (B) Northern blot analysis of CREBH mRNA levels in various tissues from mice. Tissue samples were collected from 3-month-old wild-type C57BL/6J mice. Levels of β-actin mRNA were determined for control of sample loading. (C) Expression profile of CREBH mRNA in fetal livers during embryogenesis. (D) Induction of CREBH mRNA in murine hepatoma cell line H2.35 under IL6 (40 ng/ml) stimulation for various time points. For panels A-D, experiments were performed at least 3 times and representative data are shown.
FIG. 2 depicts the analysis of gene expression in H2.35 cells. H2.35 cells were treated with 20 ng/ml TNFα, 40 ng/ml IL1β, 20 μg.ml LPS, 5 mM DTT, 0.5 μM Tg, 5 μg/ml Tm or 0.5 μg/ml BFA for 4, 8 and 12 hours, respectively. Levels of CREBH mRNA (A) and spliced XBP1 mRNA (B) in H2.35 were determined by quantitative real-time RT-PCR. Fold changes of mRNA induction were determined after normalization of the mRNA levels to internal control 18S ribosomal RNA levels. […] However, expression from the SAP or CRP promoter-reporter plasmids is sufficiently measurable in H2.35 cells so that it is possible to investigate transcriptional activation effects of CREBH on the CRP and SAP promoters by reporter assays in H2.35 cells. These reporter experiments are not possible in non-hepatocyte cell lines. However, for non-hepatocyte cell lines, such as wild-type and mutant CHO cells, CREBH cleavage and activation could be measured using the UPRE reporter assay. (C) Summary of stimuli that induce CREBH mRNA, NF-κB activation and the UPR in H2.35 and HepG2 cells. (D) Expression of BiP and GRP94 in H2.35 cells over-expressing CREBH or ATF6. H2.35 cells in a 35 mm collagen-coated plate were transfected with 1.5 μg empty DNA vector, vector expressing the nuclear form of CREBH (CREBH-N) or vector expressing nuclear form of ATF6 (ATF6 p50), respectively. Expression levels of BiP and GRP 94 were determined by Western blot analysis by using a murine and —BiP monoclonal antibody and a murine anti-GRP94 monoclonal antibody, respectively. The membranes were re-blotted with an anti-α-actin antibody for control of sample loading.
Northern blot analysis was performed according to standard procedures (Sambrook et al., 1989). ^32P-labeled probes were prepared using a random prime labeling system (Amersham Pharmacia, Piscataway, N.J., USA). A 210 bp mouse CREBH cDNA fragment, a 250 bp mouse CRP cDNA fragment and a 260 bp mouse SAP cDNA fragment were amplified from murine total RNA by reverse transcription-PCR system (Roche Applied Science), respectively, and were used as probes for Northern blot analyses. Total RNA (15 μg) per sample purified from cultured cells or murine tissues was used for Northern blot analysis. Quantitative real-time RT-PCR was performed as previously described (Back et al., 2005). Briefly, total cellular RNA prepared was reverse-transcribed to cDNA using a random primer (Applied Biosystems). The reaction mixture, containing SYBR Green PCR Master Mix (Applied Biosystems), was run in a 7900HT Fast Real-Time PCR System (Applied Biosystems). Real-time PCR primer sequences for quantification of murine XBP1 mRNA splicing are: the forward primer 5′-[…]-3′, and the reverse primer 5′-[…]-3′. Other primer sequences were designed by Primer Express (Applied Biosystems).

human CREBH = assay: Cleavage of flag-tagged human CREBH stably expressed in H2.35 cells (Western blot, cell fractionation); type: cell-based; settings: H2.35 cells stably expressing flag-tagged human CREBH; 8 hours; BFA 0.5 μg/ml, TNFα 20 ng/ml, IL6 40 ng/ml, DTT 5 mM, Tg 0.5 μM, Tm 5 μg/ml
Description: FIG. 3 depicts the effects of ER stress on CREBH: proteolytic cleavage of CREBH to release its N-terminal fragment that translocates into the nucleus. (A) Illustration of transmembrane domains and lumenal domains of SREBP, ATF6, Luman and CREBH in human (hs), mouse (mm). The conserved residues for S1P and S2P recognition are highlighted. (B) Cleavage of CREBH in H2.35 cells under different stimuli. H2.35 cells stably expressing flag-tagged human CREBH were treated with 0.5 μg/ml BFA, 20 ng/ml TNFα, 40 ng/ml IL6, 5 mM DTT, 0.5 μM Tg or 5 μg/ml Tm for 8 hours. Untransfected H2.35 cells (lane 1) and the H2.35 cells that stably express human CREBH (lane 2) were cultured under normal conditions as control. Total cell lysates were collected for Western blot analysis by using an anti-flag monoclonal antibody (upper panel). Levels of α-actin were determined for control of protein loading (lower panel). (C) Cleavage of CREBH in H2.35 cells under Tm treatment for various time periods. The H2.35 cells stably expressing flag-tagged CREBH were cultured in the absence or presence of Tm (5 μg/ml) for 4, 8 or 12 hours. Membrane fractions were isolated from the total cell lysates, and were subjected to Western blot analysis of CREBH and calnexin, respectively. Nuclear fractions were isolated from the same total cell lysates and subjected to Western blot analysis of CREBH and PARP, respectively. (D) Translocation of CREBH in COS7 cells. COS7 cells were co-transfected with a construct expressing flag-tagged full-length CREBH (CREBH-F) or CREBH-ΔC and a construct expressing KDEL-RFP, and were then cultured in the absence or presence of Tm (5 μg/ml) for 4 hours. Cells were then stained with FITC-conjugated anti-flag antibody and subjected to Zeiss Confocal Microscope analysis. Magnification: 40×10.
For analysis of expression and cleavage of CREBH protein, total cell lysates were prepared from H2.35 cells or COS7 cells using Nonidet P-40 lysis buffer (1% NP-40, 50 mM Tris-HCl at pH 7.5, 150 mM NaCl, 0.05% SDS) supplemented with protease inhibitors (Complete Mini from Roche Applied Science), 0.1 mM sodium vanadate, and 1 mM sodium fluoride. Membrane and nuclear fractions of cell lysates were isolated as previously described (Dignam et al., 1983). The total cell lysate, membrane and nuclear fractions were subjected to SDS-PAGE and then analyzed by Western blot using anti-flag monoclonal antibody or other antibodies. Immunoprecipitation and Western blot analyses of ATF6 and CREBH interaction in 293T cells expressing flag-tagged CREBH protein were performed by using anti-human ATF6 and anti-flag antibodies. Total cell lysates from 293T cells transfected with control vector or pFlag-CREBH-ΔC were immunoprecipitated with anti-human ATF6 polyclonal antibody and anti-flag antibody, respectively. The immunoprecipitated cell lysates were then subjected to Western blotting by using anti-flag antibody to detect CREBH protein and using anti-human ATF6 antibody to detect ATF6 protein, respectively. The same total cell lysates were subjected to Western blotting by using anti-flag antibody to detect expression of CREBH protein in the transfected cells. For detecting endogenous CREBH protein in the liver extracts, an anti-mouse CREBH polyclonal antibody was raised in rabbits against a purified mouse CREBH peptide composed of amino acids 92-109 [[…]]. The rabbit anti-human ATF6 polyclonal antibody was generated in the inventor's laboratory. The anti-mouse calnexin monoclonal antibody and the anti-mouse monoclonal PRAP antibody were purchased from Stressgen Biotechnologies (Victoria, BC, Canada) and BD Bioscience (Mountain View, Calif., USA), respectively.

[1] = test system: BiP, CHOP, EDEM, spliced XBP1, SAP and CRP mRNAs; assay: UPR and APR mRNA induction in mouse liver after injection (quantitative real-time RT-PCR); type: in vivo; settings: 24 hours after injection; for fold increases in UPR mRNA levels relative to those observed after injection of Tm: liver; for levels of spliced XBP1 mRNA and mRNA encoding EDEM in the liver: wild-type mice
Description: Levels of spliced XBP1 mRNA were determined by quantitative real-time RT-PCR (lower panel). […] (B) Induction of CRP, SAP, BiP and spliced XBP1 mRNAs in mice injected with Tm. C57BU6J mice at 3-months of age were injected intraperitoneally with Tm (2 mg/kg body weight) in 150 mM dextrose solution. Mice were injected with the same volume of dextrose solution as a control. Liver tissues were collected from mice at 24 hours after injection for RNA isolation. (C-E) Induction of the BiP, CHOP, EDEM, spliced XBP1, SAP and CRP mRNAs in mice challenged with IL6, IL1β, LPS or Tm. Wild-type C57B1/6J mice at 3-months of age were intraperitoneally injected with recombinant murine IL6 (25 ng/gram body weight), recombinant murine IL1β (25 ng/gram body weight), LPS (3 μg/gram body weight) or Tm (2 μg/gram body weight). Mice were injected with the same volume of NaCL (for panels C and D) or dextrose (for panels E) solution as controls. At 24 hours after injection, liver samples were collected for isolating total RNA. Quantitative real-time RT-PCR was used to determine the mRNA levels. Fold changes of mRNA induction were determined after normalization of the mRNA levels to internal control 18S ribosomal RNA levels. Each bar denotes the mean±S.D., n=5 mice per injection.
Quantitative real-time RT-PCR was performed as previously described (Back et al., 2005). Briefly, total cellular RNA prepared was reverse-transcribed to cDNA using a random primer (Applied Biosystems). The reaction mixture, containing SYBR Green PCR Master Mix (Applied Biosystems), was run in a 7900HT Fast Real-Time PCR System (Applied Biosystems). Real-time PCR primer sequences for quantification of murine XBP1 mRNA splicing are: the forward primer 5′-[sequence]-3′, and the reverse primer 5′-[sequence]-3′. Other primer sequences were designed by Primer Express (Applied Biosystems).

Molecule	induction of CREBH mRNA (CREBH mRNA)	cleavage of CREBH to release a 50 kD N-terminal fragment (human CREBH)	fold increases in UPR mRNA levels relative to those observed after injection of Tm [1]	levels of spliced XBP1 mRNA and mRNA encoding EDEM in the liver [1]
O[C@H](CS)[C@H](O)CS (racemic) [DTT, dithiothreitol]	significantly induced	significantly induced cleavage of CREBH	–	–
C[C@H]1CCC/C=C/[C@@H]2C[C@H](O)C[C@H]2[C@H](O)/C=C/C(=O)O1 [BFA, Brefeldin A]	significantly induced	induced cleavage of CREBH	–	–
C/C=C(/C)C(=O)O[C@H]1C(C)=C2[C@H]([C@@H]1OC(=O)CCCCCCC)[C@@](C)(OC(C)=O)C[C@H](OC(=O)CCC)[C@@]1(O)[C@H]2OC(=O)[C@@]1(C)O [Tg, thapsigargin]	significantly induced	significantly induced cleavage of CREBH	–	–
tumor necrosis factor α [TNFα]	induced in a time-dependent manner	neither of them significantly induced CREBH cleavage	–	–
B1	induced in a time-dependent manner	–	approximately 50 % of those observed after injection of Tm	also increased
B2	induced in a time-dependent manner	neither of them significantly induced CREBH cleavage	approximately 50 % of those observed after injection of Tm	also increased
